Where two headings read alike, the source gives them in different places.
How the values were obtained:
H1299 cells = test: Cell proliferation PAD assay, H1299; type: cell-based; settings: Homo sapiens, 48 hours
Description: (§1) Cell lines used are available from American Type Culture Collection (ATCC), for example, cell cultures containing A549 (ATCC# CCL-185), HeLa (ATCC# CCL-2), HCT116 ATTC# CCL-247), and H1299 (ATCC# CRL-5803) cells were maintained in T175 flasks following the ATCC recommended media and handling procedures. […] A 20,000 cells/ml solution was made for plating. Cells were plated in black Packard 96 well plates by placing 100 μl per well (2,000 cells per well). […] The definitions of the cell types used are as follows: A549 is lung carcinoma; HI 299 is non-small cell lung carcinoma; HI 155 is non-small cell lung carcinoma; AsPC-1 is pancreatic adenocarcinoma; Caov-3 is ovarian adenocarcinoma; COLO 205 is colorectal adenocarcinoma; DLD-1 colorectal adenocarcinoma; HCT116 is colorectal carcinoma; DU 145 is prostate carcinoma; ES-2 is ovarian clear cell carcinoma; H460 is large cell lung carcinoma; HELA is cervical adenocarcinoma; MIA PaCa-2 is pancreatice carcinoma; OVCAR-3 is ovarian adenocarcinoma; OVCAR8 is ovarian carcinoma; PC3 is prostate adenocarcinoma; SK-OV-3 is ovarian adenocarcinoma; SU86.86 is pancreatic carcinoma; TOV-21G is avarian clear cell carcinoma; U2OS is bone osteosarcoma; is ASPC-I is pancreatic adenocarcinoma; BXPC-3 is pabcreatic adenocarcinoma; HL60 is promyeloblast promyelocytic leukemia; K562 is bone marrow chronic myelogenous leukemia; L1210 is mouse lymphocytic leukemia; MOLT3 is T lymphoblast acute lymphoblastic leukemia; MOLT4 is T lymphoblast acute lymphoblastic leukemia; SW620 is colorectal adenocarcinoma; THP-1 is monocyte acute monocytic leukemia; U937 is histiocytic lymphoma; and UACC-257 is melanoma.
(§2) Compounds and additional media were added 24 hours after cell plating. […] All compound testing was done in duplicate using 6.3 fold dilutions starting with 10 mM. […] Taxol and at least one additional control were run on all plates. Three microliters of the compound master plate were added to deep well blocks containing 750 μl of RPMI media. One hundred microliters were transferred from the compound/media deep well blocks to the plated cells resulting in a 500 fold dilution of the compounds. Cells were grown at 37° C., 5% CO2 for 48 hours.
(§3) Cells to be analyzed by photography were fixed and stained. One hundred microliters of media were removed and 100 μl of 9.3% formamide was added to each well. Plates were left on the benchtop for 45 minutes. A staining solution containing 1.55 μl of 1 mg/ml DAPI added to 18.75 ml PBS was warmed for 15 minutes at 37° C. The cells were aspirated prior to washing with 100 μl of PBS. Seventy microliters of PBS were aspirated and 170 μl of the DAPI solution were added to each well of fixed cells. Plates were left at room temperature for one hour then aspirated and washed twice with 100 μl of PBS. The stained cells were left at 4° C. for a minimum of 16 hours before photographic analysis with Array Scan II (Cellomics). Analysis of the photographic images to determine numbers of live cells (proliferation), apoptotic cells and dead cells, were according to the methods described in U.S. Utility patent application Ser. No. 10/652,440, which incorporated herein in its entirety.

TRAF6/Uev1A/Ubc13 = biological target: T1, TRAF6/Uev1A/Ubc13 (Homo sapiens, UniProt Q9Y4K3); test: TRAF6/Uev1A/Ubc13 plate-based ubiquitin ligase assay; type: biochemical
T1 sequence (Q9Y4K3 1-522): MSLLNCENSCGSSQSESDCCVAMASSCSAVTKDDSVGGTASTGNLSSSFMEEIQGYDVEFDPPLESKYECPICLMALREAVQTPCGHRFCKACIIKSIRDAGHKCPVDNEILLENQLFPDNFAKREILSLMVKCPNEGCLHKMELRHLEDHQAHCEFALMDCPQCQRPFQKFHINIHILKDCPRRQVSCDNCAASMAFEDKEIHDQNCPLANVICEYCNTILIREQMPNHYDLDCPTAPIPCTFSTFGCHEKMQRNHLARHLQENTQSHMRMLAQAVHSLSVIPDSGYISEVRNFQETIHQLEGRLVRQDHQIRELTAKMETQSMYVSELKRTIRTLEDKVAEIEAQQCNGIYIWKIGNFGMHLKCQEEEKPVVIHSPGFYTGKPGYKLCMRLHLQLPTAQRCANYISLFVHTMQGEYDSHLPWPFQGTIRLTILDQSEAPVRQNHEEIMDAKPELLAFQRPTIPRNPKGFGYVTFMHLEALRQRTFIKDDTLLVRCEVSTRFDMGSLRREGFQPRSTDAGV
Description: For the assays described below, the TRAF6/Uev1A/UBC13 assay is the biochemical plate-based assay of TRAF6 ligase activity using Ubc13 as the E2 enzyme. The gel-based assay is the biochemical solution-based TRAF6 ligase assay (by SDS-PAGE and Western blot) to confirm the plate-based ELISA assay. The APC assay is an assay which is another E3 ligase (APC2/APC11) biochemical assay.
A 96-well Ni-plate was blocked with 100 μl of 1% casein in PBS for 1 hour at room temperature. The plates were then washed three times with 200 μl of 1×PBS and 80 μl of a reaction buffer was added per well which contained 50 ng of Flag-ubiquitin, 50 ng of His-ubiquitin, 62.5 mM Tris pH 7.5, 6.25 mM MgCl2, 1.0 mM DTT, and 2 μM ATP. To each well was added 10 μl of a solution of the compound in DMSO. The reaction was started by adding 10 μl of a solution consisting of 10 ng human E1, 25 ng each of Uev1a and Ubc13, and 100 ng TRAF6 in the reaction buffer. The plates were shaken for 10 minutes and incubate at room temperature for 1 hour. After the incubation, the plates were washed three times with 200 μl 1×PBS in 0.05% Tween and 100 μl of an antibody mix consisting of anti-Flag (1:30,000 dilution; Sigma F-3165) and anti-Mouse IgG-HRP (1/150,000 dilution; Jackson Immunoresearch #115-035-146) in 1×PBS with 0.25% BSA. The plates were then incubated for another 1 hour at room temperature, and after incubation the plate was washed three times with 200 μl 1×PBS with 0.05% Tween. The amount of ubiquitin was measured by adding 100 μl of Lumino substrate (1:5 dilution) and reading the luminescence with a fluorimeter.
Table 2 below illustrates the inhibitory activity of the compounds of the invention determined by the TRAF6/Uev1A/Ubc13 assay as well as in the ICAM, APC and the ROC1/CUL1 Ubiquitin Ligase Assay (SCF Assay). The IC50 values were determined using a various concentrations of the compounds.

A549 cells = test: Cell proliferation PAD assay, A549; type: cell-based; settings: Homo sapiens, 48 hours
Description: as §1, §2, §3

[1] = NCI-H1299, 6pt, read-out: H1299 6pt
[2] = NCI-H1299, 3pt, read-out: H1299 3pt

Compound: COC(=O)c1ccc(Nc2ccc3nonc3c2S(=O)(=O)Nc2ccc(C(=O)OC)cc2)cc1 [compound 10, methyl 4-{[(5-{[4-(methoxycarbonyl)phenyl]amino}-2,1,3-benzoxadiazol-4-yl)sulfonyl]amino}benzoate]
- IC50 (H1299 cells; [1]): ≥ 20 µM
- IC50 (TRAF6/Uev1A/Ubc13): ≥ 20 µM
- IC50 (A549 cells; 6pt, read-out: A549 6pt): ≥ 20 µM

Compound: O=S(=O)(Nc1cccc2cnccc12)c1cccc2nonc12 [compound 12, N-isoquinolin-5-yl-2,1,3-benzoxadiazole-4-sulfonamide]
- IC50 (H1299 cells; [2]): ≥ 20 µM
- IC50 (TRAF6/Uev1A/Ubc13): ≥ 20 µM
- IC50 (A549 cells; 3pt, read-out: A549 3pt): ≥ 20 µM

Compound: Cc1ccc(F)cc1NS(=O)(=O)c1cccc2nonc12 [compound 13, N-(5-fluoro-2-methylphenyl)-2,1,3-benzoxadiazole-4-sulfonamide]
- IC50 (H1299 cells; [2]): ≥ 20 µM
- IC50 (TRAF6/Uev1A/Ubc13): ≥ 20 µM
- IC50 (A549 cells; 3pt, read-out: A549 3pt): ≥ 20 µM

Compound: O=S(=O)(Nc1ccc(Oc2ncc(C(F)(F)F)cc2Cl)cc1)c1cccc2nonc12 [compound 62, N-(4-{[3-chloro-5-(trifluoromethyl)pyridin-2-yl]oxy}phenyl)-2,1,3-benzoxadiazole-4-sulfonamide]
- IC50 (H1299 cells; [2]): ≥ 20 µM
- IC50 (TRAF6/Uev1A/Ubc13): ≥ 20 µM
- IC50 (A549 cells; 3pt, read-out: A549 3pt): ≥ 20 µM

Compound: CC(C)(C)OC(=O)N1CCN(c2ccc([N+](=O)[O-])c3nonc23)CC1 [compound 72, Tert-butyl 4-(7-nitro-2,1,3-benzoxadiazol-4-yl)piperazine-1-carboxylate]
- IC50 (H1299 cells; [2]): ≥ 20 µM
- IC50 (TRAF6/Uev1A/Ubc13): ≥ 20 µM
- IC50 (A549 cells; 3pt, read-out: A549 3pt): ≥ 20 µM

Compound: O=S(=O)(Nc1cccc2nonc12)c1ccc(Oc2ccncc2)cc1 [compound 80, N-2,1,3-benzoxadiazol-4-yl-4-(pyridin-4-yloxy)benzenesulfonamide]
- IC50 (H1299 cells; [2]): ≥ 20 µM
- IC50 (TRAF6/Uev1A/Ubc13): ≥ 20 µM
- IC50 (A549 cells; 3pt, read-out: A549 3pt): ≥ 20 µM

Compound: O=[N+]([O-])c1ccc(N2CCN(CCN3CCOCC3)CC2)c2nonc12 [compound 85, 4-[4-(2-morpholin-4-ylethyl)piperazin-1-yl]-7-nitro-2,1,3-benzoxadiazole]
- IC50 (H1299 cells; [2]): ≥ 20 µM
- IC50 (TRAF6/Uev1A/Ubc13): ≥ 20 µM
- IC50 (A549 cells; 3pt, read-out: A549 3pt): ≥ 20 µM

Compound: O=S(=O)(Nc1cccc2nonc12)c1ccc(Oc2cccnc2)cc1 [compound 86, N-2,1,3-benzoxadiazol-4-yl-4-(pyridin-3-yloxy)benzenesulfonamide]
- IC50 (H1299 cells; [2]): ≥ 20 µM
- IC50 (TRAF6/Uev1A/Ubc13): ≥ 20 µM
- IC50 (A549 cells; 3pt, read-out: A549 3pt): ≥ 20 µM

Compound: O=S(=O)(Nc1cccc2nonc12)c1ccc(Oc2ccccc2)cn1 [compound 87, N-2,1,3-benzoxadiazol-4-yl-5-phenoxypyridine-2-sulfonamide]
- IC50 (H1299 cells; [2]): ≥ 20 µM
- IC50 (TRAF6/Uev1A/Ubc13): ≥ 20 µM
- IC50 (A549 cells; 3pt, read-out: A549 3pt): ≥ 20 µM

Compound: CC(=O)N1CCN(c2ccc([N+](=O)[O-])c3nonc23)CC1 [compound 88, 4-(4-acetylpiperazin-1-yl)-7-nitro-2,1,3-benzoxadiazole]
- IC50 (H1299 cells; [2]): ≥ 20 µM
- IC50 (TRAF6/Uev1A/Ubc13): ≥ 20 µM
- IC50 (A549 cells; 3pt, read-out: A549 3pt): ≥ 20 µM

Compound: O=S(=O)(Nc1ccc(Oc2ncccn2)c(Cl)c1)c1cccc2nonc12 [compound 91, N-[3-chloro-4-(pyrimidin-2-yloxy)phenyl]-2,1,3-benzoxadiazole-4-sulfonamide]
- IC50 (H1299 cells; [2]): ≥ 20 µM
- IC50 (TRAF6/Uev1A/Ubc13): ≥ 20 µM
- IC50 (A549 cells; 3pt, read-out: A549 3pt): ≥ 20 µM

Compound: O=S(=O)(Nc1cccc2nonc12)c1ccc(Oc2ccccc2)cc1 [compound 93, N-2,1,3-benzoxadiazol-4-yl-4-phenoxybenzenesulfonamide]
- IC50 (H1299 cells; [1]): ≥ 20 µM
- IC50 (TRAF6/Uev1A/Ubc13): 1 to 20 µM
- IC50 (A549 cells; 6pt, read-out: A549 6pt): ≥ 20 µM

Compound: COc1cccc(-c2ccc([N+](=O)[O-])c3nonc23)c1 [compound 319, 7-(3-Methoxyphenyl)-4-nitro-2,1,3-benzoxadiazole]
- IC50 (H1299 cells; [1]): < 1 µM
- IC50 (A549 cells; 6pt, read-out: A549 6pt): < 1 µM

Compound: O=[N+]([O-])c1ccc(-c2cccc(F)c2)c2nonc12 [compound 320, 7-(3-Fluorophenyl)-4-nitro-2,1,3-benzoxadiazole]
- IC50 (H1299 cells; [1]): < 1 µM
- IC50 (A549 cells; 6pt, read-out: A549 6pt): 1 to 20 µM

Compound: Cc1cc(C)cc(-c2cc(Cl)c3nonc3c2)c1 [compound 322, 4-Chloro-6-[3,5-(dimethyl)phenyl]-2,1,3-benzoxadiazole]
- IC50 (H1299 cells; [1]): ≥ 20 µM
- IC50 (A549 cells; 6pt, read-out: A549 6pt): ≥ 20 µM

Compound: Cc1cc(C)cc(-c2cc(-c3cc(C)cc(C)c3)c3nonc3c2)c1 [compound 323, 4,6-bis[3,5-(dimethyl)phenyl]-2,1,3-benzoxadiazole]
- IC50 (H1299 cells; [1]): ≥ 20 µM
- IC50 (A549 cells; 6pt, read-out: A549 6pt): ≥ 20 µM

Compound: Fc1cc(F)cc(-c2cc(Cl)c3nonc3c2)c1 [compound 324, 4-Chloro-6-[3,5-(difluoro)phenyl]-2,1,3-benzoxadiazole]
- IC50 (H1299 cells; [1]): ≥ 20 µM
- IC50 (A549 cells; 6pt, read-out: A549 6pt): ≥ 20 µM

Compound: FC(F)(F)c1cccc(-c2cc(Cl)c3nonc3c2)c1 [compound 325, 4-Chloro-6-[3-(trifluoromethyl)phenyl]-2,1,3-benzoxadiazole]
- IC50 (H1299 cells; [1]): ≥ 20 µM
- IC50 (A549 cells; 6pt, read-out: A549 6pt): ≥ 20 µM

Compound: Cc1cccc(-c2cc(Cl)c3nonc3c2)c1 [compound 326, 4-Chloro-6-(3-methylphenyl)-2,1,3-benzoxadiazole]
- IC50 (H1299 cells; [1]): ≥ 20 µM
- IC50 (A549 cells; 6pt, read-out: A549 6pt): ≥ 20 µM

Compound: FC(F)(F)c1ccc(-c2cc(Cl)c3nonc3c2)cc1 [compound 327, 4-Chloro-6-[4-(trifluoromethyl)phenyl]-2,1,3-benzoxadiazole]
- IC50 (H1299 cells; [1]): ≥ 20 µM
- IC50 (A549 cells; 6pt, read-out: A549 6pt): ≥ 20 µM

Compound: COc1cccc(-c2cc(Cl)c3nonc3c2)c1 [compound 328, 4-Chloro-6-(3-methoxyphenyl)-2,1,3-benzoxadiazole]
- IC50 (H1299 cells; [1]): ≥ 20 µM
- IC50 (A549 cells; 6pt, read-out: A549 6pt): ≥ 20 µM

Compound: CC(C)(C)c1ccc(-c2cc(Cl)c3nonc3c2)cc1 [compound 329, 4-Chloro-6-(4-(tert-butyl)phenyl)-2,1,3-benzoxadiazole]
- IC50 (H1299 cells; [1]): ≥ 20 µM
- IC50 (A549 cells; 6pt, read-out: A549 6pt): ≥ 20 µM
